Experimental data reported in publication PMC4167698, “Fatty Acid Esters of Phloridzin Induce Apoptosis of Human Liver Cancer Cells through Altered Gene Expression” (PLoS ONE, 2014).

What was measured:
[1] = test system: normal human hepatocytes (HP-F); assay: MTS cell viability assay, normal human hepatocytes; format: cell-based; details: Hepatocyte, 24 h
Procedure: (§1) Cell viability was determined by using the MTS assay. In brief, HepG2 cells (5×10^3 cells/100 µL/well), MDA-MB-231 (5×10^3 cells/100 µL/well), THP-1 (25×10^3/100 µL/well), normal human and rat hepatocytes (1×10^4 cells/100 µL/well) were plated in triplicate, in a 96 well sterile flat bottom tissue culture plates. […] Thereby, cells were exposed to various concentrations (0.1, 1, 10, 25, 50, 75, 100 µM) of each treatment. Controls consist of cells with media containing DMSO (<0.5%), test blank wells contained the test compound in media with no cells and blank wells contained media with no cells. After additional 3, 6, 12, 18 or 24 h, 20 µL of the MTS reagent in combination with the electron coupling agent, phenazine methosulfate were added to the wells and cells were incubated in a humidified incubator for 3 h. Absorbance at 490 nm (OD490) was measured by using a Flurostar Optima microplate reader (BMG Labtech, Cary, NC, USA) to obtain the number of viable cells relative to the control population. Percentage of viability of the test compound treated cells are expressed as percentage compared to control (<0.5% DMSO). […] The selective index (SI) of the fatty acid esters of phloridzin is defined as the ratio of cytotoxicity (EC50 values) on normal HP-F cells to solid cancer HepG2, MDA-MB-231 cells (SI = EC50 on HP-F cells/EC50 on solid cancer cells). Samples with SI values greater than three were considered to have high selectivity towards cancer cells.

MDA-MB-231 cells = assay: MTS cell proliferation assay, MDA-MB-231; format: cell-based, human; details: Homo sapiens, MTS
Procedure: as §1

THP-1 cells = assay: MTS cell proliferation assay, THP-1; format: cell-based, human; details: Homo sapiens, MTS
Procedure: as §1

HepG2 cells = assay: MTS cell proliferation assay, HepG2; format: cell-based, human; details: Homo sapiens, MTS
Procedure: as §1

Measured: EC50

CCCCC/C=C\C/C=C\CCCCCCCC(=O)O [Linoleic acid, linoleic acid]
> 100 µM: [1] | MDA-MB-231 cells; MDA-MB-231, 3 h | MDA-MB-231 cells; MDA-MB-231, 6 h | MDA-MB-231 cells; MDA-MB-231, 12 h | MDA-MB-231 cells; MDA-MB-231, 18 h | MDA-MB-231 cells; MDA-MB-231, 24 h | THP-1 cells; THP-1, 3 h | THP-1 cells; THP-1, 6 h | THP-1 cells; THP-1, 12 h | THP-1 cells; THP-1, 18 h | THP-1 cells; THP-1, 24 h | HepG2 cells; HepG2, 3 h | HepG2 cells; HepG2, 6 h | HepG2 cells; HepG2, 12 h | HepG2 cells; HepG2, 18 h | HepG2 cells; HepG2, 24 h

CCCCCCCC/C=C\CCCCCCCC(=O)O [Oleic acid, oleic acid]
> 100 µM: [1] | MDA-MB-231 cells; MDA-MB-231, 3 h | MDA-MB-231 cells; MDA-MB-231, 6 h | MDA-MB-231 cells; MDA-MB-231, 12 h | MDA-MB-231 cells; MDA-MB-231, 18 h | MDA-MB-231 cells; MDA-MB-231, 24 h | THP-1 cells; THP-1, 3 h | THP-1 cells; THP-1, 6 h | THP-1 cells; THP-1, 12 h | THP-1 cells; THP-1, 18 h | THP-1 cells; THP-1, 24 h | HepG2 cells; HepG2, 3 h | HepG2 cells; HepG2, 6 h | HepG2 cells; HepG2, 12 h | HepG2 cells; HepG2, 18 h | HepG2 cells; HepG2, 24 h
